Laboratory results reported in patent publication US4073926A, “Mono-quaternary ammonium salts of hydantoin and compositions thereof” (Glyco Chemicals, Inc., priority 1976, dated 1978).
Like-named read-outs stand apart in the source and are kept apart here.

Key:
Assay type in all cases: cell-based
[1] = system: Pseudomonas aeruginosa No. 9027; assay: Serial dilution anti-bacterial test in BBL Trypticase Soy Broth; conditions: for MIC: Pseudomonas aeruginosa, read-out: Minimum Inhibitory Centration; as to Test Culture and Results Pseudomonas aeruginosa # 9027: key: -: Denotes no test; +: Denotes growth; 0: Denotes no growth
Procedure: (§1) The product compound of the Example 1 was tested for anti-bacterial and anti-fungal activity and compared to the known commercial broad spectrum bactericide/fungicide, according to the following procedure.
(§2) Samples of the compound were prepared for testing by making a stock solution in sterile distilled water containing 10,000 parts per million. Serial dilutions of each sample were prepared in appropriate culture media which were then innoculated with the test cultures and incubated. The tests employing bacteria were performed in BBL Trypticase Soy Broth incubated for 48 hours at 35° C. The tests employing A. niger were performed in Difco Sabouraud Dextrose Broth incubated for 5 days at 26° C.
(§3) The test cultures were Staphylococcus aureus No. 6538, Pseudomonas aeruginosa No. 9027 and Aspergillus niger No. 16404.

[2] = system: Aspergillus niger No. 16404; assay: Serial dilution anti-fungal test in Difco Sabouraud Dextrose Broth; set-up: Test Culture and Results Aspergillis niger # 16404: key: -: Denotes no test; +: Denotes growth; 0: Denotes no growth; conditions: for MIC: Aspergillus niger, NO.16404, 120 h, read-out: Minimum Inhibitory Centration
Procedure: as §1, §2, §3

[3] = system: Staphylococcus aureus No. 6538; assay: Serial dilution anti-bacterial test in BBL Trypticase Soy Broth; set-up: Test Culture and Results Staphyloccus aureus # 6538: key: -: Denotes no test; +: Denotes growth; 0: Denotes no growth; conditions: for MIC: Staphylococcus aureus, read-out: Minimum Inhibitory Centration
Procedure: as §1, §2, §3

[4] = 100 parts per million, 48 hours at 35° C
[5] = 200 parts per million, 48 hours at 35° C
[6] = 300 parts per million, 48 hours at 35° C
[7] = 400 parts per million, 48 hours at 35° C
[8] = 500 parts per million, 48 hours at 35° C
[9] = 600 parts per million, 48 hours at 35° C
[10] = 700 parts per million, 48 hours at 35° C
[11] = 800 parts per million, 48 hours at 35° C
[12] = 900 parts per million, 48 hours at 35° C
[13] = 1000 parts per million, 48 hours at 35° C
[14] = 100 parts per million, 5 days at 26° C
[15] = 200 parts per million, 5 days at 26° C
[16] = 300 parts per million, 5 days at 26° C
[17] = 400 parts per million, 5 days at 26° C
[18] = 500 parts per million, 5 days at 26° C
[19] = 600 parts per million, 5 days at 26° C
[20] = 700 parts per million, 5 days at 26° C
[21] = 800 parts per million, 5 days at 26° C
[22] = 900 parts per million, 5 days at 26° C
[23] = 1000 parts per million, 5 days at 26° C

SMILES	Test Culture and Results Pseudomonas aeruginosa # 9027 [1, 4]	Test Culture and Results Pseudomonas aeruginosa # 9027 [1, 5]	Test Culture and Results Pseudomonas aeruginosa # 9027 [1, 6]	Test Culture and Results Pseudomonas aeruginosa # 9027 [1, 7]	Test Culture and Results Pseudomonas aeruginosa # 9027 [1, 8]	Test Culture and Results Pseudomonas aeruginosa # 9027 [1, 9]	Test Culture and Results Pseudomonas aeruginosa # 9027 [1, 10]	Test Culture and Results Pseudomonas aeruginosa # 9027 [1, 11]	Test Culture and Results Pseudomonas aeruginosa # 9027 [1, 12]	Test Culture and Results Pseudomonas aeruginosa # 9027 [1, 13]	Test Culture and Results Aspergillis niger # 16404 [2, 14]	Test Culture and Results Aspergillis niger # 16404 [2, 15]	Test Culture and Results Aspergillis niger # 16404 [2, 16]	Test Culture and Results Aspergillis niger # 16404 [2, 17]	Test Culture and Results Aspergillis niger # 16404 [2, 18]	Test Culture and Results Aspergillis niger # 16404 [2, 19]	Test Culture and Results Aspergillis niger # 16404 [2, 20]	Test Culture and Results Aspergillis niger # 16404 [2, 21]	Test Culture and Results Aspergillis niger # 16404 [2, 22]	Test Culture and Results Aspergillis niger # 16404 [2, 23]	also measured
ClC=CC[N+]12CN3CN(CN(C3)C1)C2.[Cl-] [Dowicil 200, 1-(3-chloroallyl)-3,5,7-triaza-1-azonia adamantane chloride, reference compound]	+	+	+	+	+	+	+	+	0	0	+	+	+	+	+	+	+	0	0	0	MIC ([1]; NO.9027, 48 h): 900 µg/mL; MIC [2]: 800 µg/mL; Test Culture and Results Staphyloccus aureus # 6538 [3, 4]: +; Test Culture and Results Staphyloccus aureus # 6538 [3, 5]: 0; Test Culture and Results Staphyloccus aureus # 6538 [3, 6]: 0; Test Culture and Results Staphyloccus aureus # 6538 [3, 7]: 0; Test Culture and Results Staphyloccus aureus # 6538 [3, 8]: 0; Test Culture and Results Staphyloccus aureus # 6538 [3, 9]: 0; Test Culture and Results Staphyloccus aureus # 6538 [3, 10]: 0; Test Culture and Results Staphyloccus aureus # 6538 [3, 11]: 0; Test Culture and Results Staphyloccus aureus # 6538 [3, 12]: 0; Test Culture and Results Staphyloccus aureus # 6538 [3, 13]: 0; MIC ([3]; NO.6538, 48 h): 200 µg/mL
CCCCCCCCCCCC[N+](C)(C)CCCN1C(=O)NC(C)(C)C1=O [Example 1]	+	+	+	+	+	0	0	0	0	0	+	+	0	0	0	0	0	0	0	0	MIC ([1]; NO.9027, Pseudo. aerugin # 9027, 48 hours at 35° C): 600 µg/mL; MIC ([2]; Asperg. niger # 16404, 5 days at 26° C): 300 µg/mL; Test Culture and Results Staphyloccus aureus # 6538 ([3]; 1.56 parts per million, 48 hours at 35° C): +; Test Culture and Results Staphyloccus aureus # 6538 ([3]; 3.12 parts per million, 48 hours at 35° C): +; Test Culture and Results Staphyloccus aureus # 6538 ([3]; 6.25 parts per million, 48 hours at 35° C): +; Test Culture and Results Staphyloccus aureus # 6538 ([3]; 12.5 parts per million, 48 hours at 35° C): +; Test Culture and Results Staphyloccus aureus # 6538 ([3]; 25 parts per million, 48 hours at 35° C): 0; Test Culture and Results Staphyloccus aureus # 6538 ([3]; 50 parts per million, 48 hours at 35° C): 0; Test Culture and Results Staphyloccus aureus # 6538 [3, 4]: 0; Test Culture and Results Staphyloccus aureus # 6538 [3, 5]: 0; Test Culture and Results Staphyloccus aureus # 6538 [3, 6]: 0; Test Culture and Results Staphyloccus aureus # 6538 [3, 7]: 0; Test Culture and Results Staphyloccus aureus # 6538 [3, 8]: 0; Test Culture and Results Staphyloccus aureus # 6538 [3, 9]: 0; Test Culture and Results Staphyloccus aureus # 6538 [3, 10]: 0; Test Culture and Results Staphyloccus aureus # 6538 [3, 11]: 0; Test Culture and Results Staphyloccus aureus # 6538 [3, 12]: 0; Test Culture and Results Staphyloccus aureus # 6538 [3, 13]: 0; MIC ([3]; NO.6538, Staph. aureus # 6538, 48 hours at 35° C): 25 µg/mL
